Laboratory results as given in BindingDB's records for doi:10.7270/Q2ST7N9K (Burnham Center For Chemical Genomics, 2010).

Molecular target: Intestinal-type alkaline phosphatase (Homo sapiens, UniProt P09923)
Test: human intestinal alkaline phosphatase activators, dose response, biochemical, luminescence, uHTS hits (AID 463120)

Chain of Intestinal-type alkaline phosphatase (P09923 whole entry): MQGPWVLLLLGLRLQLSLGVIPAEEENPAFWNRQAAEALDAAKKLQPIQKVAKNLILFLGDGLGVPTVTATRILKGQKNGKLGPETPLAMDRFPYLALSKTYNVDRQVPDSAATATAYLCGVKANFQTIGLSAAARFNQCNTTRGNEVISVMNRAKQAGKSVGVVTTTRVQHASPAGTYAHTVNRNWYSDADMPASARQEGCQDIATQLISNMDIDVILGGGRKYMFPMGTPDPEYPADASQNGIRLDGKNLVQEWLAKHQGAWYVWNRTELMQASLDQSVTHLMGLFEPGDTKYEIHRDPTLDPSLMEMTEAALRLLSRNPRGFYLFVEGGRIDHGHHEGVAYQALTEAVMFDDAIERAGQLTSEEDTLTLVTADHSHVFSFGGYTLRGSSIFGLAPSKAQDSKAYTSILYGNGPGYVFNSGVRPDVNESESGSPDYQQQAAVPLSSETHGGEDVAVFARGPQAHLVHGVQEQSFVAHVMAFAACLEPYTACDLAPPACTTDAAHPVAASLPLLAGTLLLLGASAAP

Compound | EC50 [µM]
COc1cccc(CN=Nc2nn3cnnc3c3ccccc23)c1O | > 100
Cc1c(C(=O)NN=Cc2ccc(O)cc2O)[nH][nH]c1=O | 8.3
Cc1cc(Br)ccc1SCC(=O)OCC(=O)C(C#N)c1nc2ccccc2[nH]1 (stereo not drawn) [2-[(4-bromo-2-methylphenyl)thio]acetic acid [3-cyano-3-(1,3-dihydrobenzimidazol-2-ylidene)-2-oxopropyl] ester] | 13.4
COc1ccc(Cc2cc(O)n(-c3ccc(C)cc3)c2O)cc1 [3-(4-Methoxy-benzyl)-1-p-tolyl-pyrrolidine-2,5-dione] | > 100
C=c1[nH]n(-c2nc3ccccc3[nH]2)c(=O)c1=CN(C)C [(4E)-2-(1H-benzimidazol-2-yl)-4-(dimethylaminomethylidene)-5-methyl-pyrazol-3-one] | 12.3
COc1cccc(C=NNC(=O)c2[nH][nH]c(=O)c2C)c1O [N'-[(E)-(5-methoxy-6-oxidanylidene-cyclohexa-2,4-dien-1-ylidene)methyl]-4-methyl-5-oxidanylidene-1,4-dihydropyrazole-3-carbohydrazide] | 6.53
CCOC(=O)c1c(C)[nH]c(C(=O)N/N=C/C2C=C([N+](=O)[O-])C=CC2=O)c1C (stereo not drawn) [ethyl 2,4-dimethyl-5-[[[(E)-(3-nitro-6-oxocyclohexa-2,4-dien-1-ylidene)methyl]amino]carbamoyl]-1H-pyrrole-3-carboxylate] | 12.1

Further lines, results first:

EC50 [µM] | Compound
6.62 | CCc1ccc(CN=Nc2ncnc3nc[nH]c23)cc1 [MLS000419199]
77 | Cn1c(C(C#N)C(=O)c2ccc(Br)s2)nc2ccccc21 (stereo not drawn) [MLS001167394]
> 100 | Cc1ccc(O)c(N=CCC(=O)c2ccc(F)cc2)c1 [MLS001183581]
13.6 | O=c1c2ccccc2nc(N=NCc2c(O)ccc3ccccc23)n1O [SMR000145705]
9.21 | O=C(Nn1c(O)csc1=S)C(=O)Nn1c(O)csc1=S [SMR000349781]
8.21 | O=Nc1[nH]c(=O)c(CC(=O)c2ccccc2)nc1NO [SMR000539633]
